From ChEMBL document CHEMBL1671741, “The development of ciprofloxacin resistance in Pseudomonas aeruginosa involves multiple response stages and multiple proteins” (2010)
Values after ≈ are worked out from the molar mass of the structure shown. Active and inactive are the calls of the source. The calls are words filed in the database; no cut-off is given here.

Legend:
Pseudomonas aeruginosa [1] = test: Antibacterial activity against Pseudomonas aeruginosa PAO1 harboring gatA::ISphoA/haha mutation by Etest; assay type: functional
Pseudomonas aeruginosa [2] = test: Antibacterial activity against Pseudomonas aeruginosa PAO1 harboring phoU::ISphoA/haha mutation by Etest; assay type: functional
Pseudomonas aeruginosa [3] = test: Antibacterial activity against Pseudomonas aeruginosa PAO1 harboring gabD::ISphoA/haha mutation by Etest; assay type: functional
Pseudomonas aeruginosa [4] = test: Antibacterial activity against Pseudomonas aeruginosa PAO1 harboring mmsA::ISphoA/haha mutation by Etest; assay type: functional
Pseudomonas aeruginosa [5] = test: Antibacterial activity against Pseudomonas aeruginosa PAO1 harboring yaaA::ISphoA/haha mutation by Etest; assay type: functional
Pseudomonas aeruginosa [6] = test: Antibacterial activity against Pseudomonas aeruginosa PAO1 harboring gabD::ISlacZ/haha mutation by Etest; assay type: functional
Pseudomonas aeruginosa [7] = test: Antibacterial activity against wild type Pseudomonas aeruginosa PAO1 assessed as viable bacterial count by Etest; assay type: functional
Pseudomonas aeruginosa [8] = test: Antibacterial activity against Pseudomonas aeruginosa PAO1 horboring mmsA mutant gene assessed as viable bacterial count at 8 times MIC after 48 hrs by Etest; assay type: functional, organism-based
Pseudomonas aeruginosa [9] = test: Antibacterial activity against Pseudomonas aeruginosa PAO1 horboring yaaA mutant gene assessed as viable bacterial count at 4 times MIC after 24 hrs by Etest; assay type: functional, organism-based
Pseudomonas aeruginosa [10] = test: Antibacterial activity against Pseudomonas aeruginosa PAO1 horboring yaaA mutant gene assessed as viable bacterial count at 8 times MIC after 48 hrs by Etest; assay type: functional, organism-based
Pseudomonas aeruginosa [11] = test: Antibacterial activity against wild type Pseudomonas aeruginosa PAK assessed as viable bacterial count at 0.5 times MIC after 48 hrs by Etest; assay type: functional, organism-based
Pseudomonas aeruginosa [12] = test: Antibacterial activity against Pseudomonas aeruginosa PAO1 horboring gabD mutant gene assessed as viable bacterial count at 4 times MIC after 24 hrs by Etest; assay type: functional, organism-based
Pseudomonas aeruginosa [13] = test: Antibacterial activity against Pseudomonas aeruginosa PAO1 horboring gabD mutant gene assessed as viable bacterial count at 8 times MIC after 48 hrs by Etest; assay type: functional, organism-based
Pseudomonas aeruginosa [14] = test: Antibacterial activity against Pseudomonas aeruginosa PAO1 horboring mmsA mutant gene assessed as viable bacterial count at 4 times MIC after 24 hrs by Etest; assay type: functional, organism-based

| Molecule | MIC (Pseudomonas aeruginosa [1]) | MIC (Pseudomonas aeruginosa [2]) | MIC (Pseudomonas aeruginosa [3]) | MIC (Pseudomonas aeruginosa [4]) | MIC (Pseudomonas aeruginosa [5]) | MIC (Pseudomonas aeruginosa [6]) | MIC (Pseudomonas aeruginosa [7]) | Activity (Pseudomonas aeruginosa [8]) | Activity (Pseudomonas aeruginosa [9]) | Activity (Pseudomonas aeruginosa [10]) | Activity (Pseudomonas aeruginosa [11]) | Activity (Pseudomonas aeruginosa [12]) | Activity (Pseudomonas aeruginosa [13]) | Activity (Pseudomonas aeruginosa [14]) |
| --- | --- | --- | --- | --- | --- | --- | --- | --- | --- | --- | --- | --- | --- | --- |
| CC(C)(O/N=C(\C(=O)N[C@@H]1C(=O)N2C(C(=O)[O-])=C(C[n+]3ccccc3)CS[C@H]12)c1csc(N)n1)C(=O)O [CEFTAZIDIME] | 1 µg/mL (≈ 1.83 µM) | 1.5 µg/mL (≈ 2.74 µM) | 1 µg/mL (≈ 1.83 µM) | 1 µg/mL (≈ 1.83 µM) | 0.75 µg/mL (≈ 1.37 µM) | 1 µg/mL (≈ 1.83 µM) | 1 µg/mL (≈ 1.83 µM) | – | – | – | – | – | – | – |
| C[C@H]1COc2c(N3CCN(C)CC3)c(F)cc3c(=O)c(C(=O)O)cn1c23.C[C@H]1COc2c(N3CCN(C)CC3)c(F)cc3c(=O)c(C(=O)O)cn1c23.O [LEVOFLOXACIN] | 0.5 µg/mL | – | 0.25 µg/mL | 0.25 µg/mL | 0.25 µg/mL | 0.25 µg/mL | – | – | – | – | – | – | – | – |
| GENTAMICIN | 3 µg/mL | 3 µg/mL | 3 µg/mL | 2 µg/mL | 3 µg/mL | 3 µg/mL | 2 µg/mL | – | – | – | – | – | – | – |
| O=C(O)c1cn(C2CC2)c2cc(N3CCNCC3)c(F)cc2c1=O [CIPROFLOXACIN] | 0.19 µg/mL (≈ 0.573 µM) | – | – | – | – | – | – | Active | Active | Active | inactive | inactive | Active | inactive |
| NC[C@H]1O[C@H](O[C@H]2[C@H](O)[C@@H](O[C@H]3O[C@H](CO)[C@@H](O)[C@H](N)[C@H]3O)[C@H](N)C[C@@H]2N)[C@H](N)C[C@@H]1O [TOBRAMYCIN] | 2 µg/mL (≈ 4.28 µM) | 2 µg/mL (≈ 4.28 µM) | 2 µg/mL (≈ 4.28 µM) | 1.5 µg/mL (≈ 3.21 µM) | 2 µg/mL (≈ 4.28 µM) | 2 µg/mL (≈ 4.28 µM) | 2 µg/mL (≈ 4.28 µM) | – | – | – | – | – | – | – |
| C[C@@H](O)[C@H]1C(=O)N2C(C(=O)O)=C(SCCNC=N)C[C@H]12 [IMIPENEM ANHYDROUS] | 4 µg/mL (≈ 13.4 µM) | 4 µg/mL (≈ 13.4 µM) | 1.5 µg/mL (≈ 5.01 µM) | 1 µg/mL (≈ 3.34 µM) | 2 µg/mL (≈ 6.68 µM) | 1.5 µg/mL (≈ 5.01 µM) | 4 µg/mL (≈ 13.4 µM) | – | – | – | – | – | – | – |
